What was measured:
[1] = tested on: phosphorylated S6 kinase (S6K); assay: Western blotting of phosphorylated S6K in BT-474 cells; format: cell-based, human; details: Example 7, two hours, antimycin 1-0.01 nmol/L, oligomycin 100-1 ng/mL, 2,4-dinitrophenol 300-3 µmol/L
Experimental: Human HER2-expressing human breast cancer cell line BT-474 (purchased from American Tissue Culture Collection (ATCC)) was seeded into a 24-multiwell plate (BT-474: 1.2 x 10^5 cells/well) and cultured overnight in a carbon dioxide gas incubator (5% CO2, 37°C). As an energy metabolism inhibitor having a mechanism that differed from that of rotenone, mitochondrial respiratory chain complex III-inhibiting compound antimycin (Wako Pure Chemical Industries) was added to final concentrations of 1, 0.3, 0.1, 0.03 and 0.01 nmol/L while continuing culture. Using another plate, mitochondrial respiratory chain complex V-inhibiting compound oligomycin (Wako Pure Chemical Industries) was added to final concentrations of 100, 30, 10, 3 and 1 ng/mL while continuing culture. In addition, 2,4-dinitrophenol was added to 300, 100, 30, 10 and 3 µmol/L while continuing culture. Two hours after the addition of the agent, the broth was removed and the cells were lysed with an SDS sample buffer (200 µL). Then, this cell lysate was used to perform western blotting analysis. Specifically, this cell lysate (8 µL) was separated by an SDS-PAGE method (gel concentration: 7.5-15%) (Analytical Biochemistry, No. 166, pp. 368-379, 1987) and transferred onto a nitrocellulose membrane (BioRad). Then, an antibody specific to phosphorylated HER2 (Cell signaling technology, Code# 2244), pACC antibody specific to phosphorylated acetyl-CoA carboxylase (ACC) (Cell signaling technology, Code# 3661) and anti-phosphorylated S6K antibody specific to phosphorylated S6 kinase (S6K) (Cell signaling technology, Code# 9209) were used to detect the antibody by chemiluminescent detection with an ECL system (Amersham) to quantify an amount of phosphorylated protein with LAS-1000 plus image analysis device (FUJIFILM).

[2] = tested on: A549 non-small cell lung cancer cell; assay: Viable cell count using Cell Counting Kit-F; format: cell-based, human; details: HER2-expressing cancer, five days of culture
Experimental: (§1) BT-474 breast cancer cell, MDA-MB-453 breast cancer cell, A549 non-small cell lung cancer cell and LNCaP prostate cancer cell were used as human HER2-expressing cells while MDA-MB-231 breast cancer cell and A498 kidney cancer cell (all purchased from ATCC) were used as HER2-nonexpressing cells. Each of the cells used had been seeded into a 96-plate at 500cells/150 µL/well and cultured overnight. Each of the compounds, i.e., antimycin (final concentrations: 1, 0.1, 0.01 and 0.001 µmol/L), 2,4-dinitrophenol (final concentrations: 0.6, 0.2, 0.06 and 0.02 mmol/L), metformin (final concentrations: 25, 5, 1 and 0.2 mmol/L) and AICAR (final concentrations: 25, 5, 1 and 0.2 mmol/L) was diluted with a medium and added for 50 µL/well at a time to the final concentrations mentioned above. Following five days of culture at 37°C in 5% CO2, the cells were counted using Cell Counting Kit-F (Dojindo Laboratories).
(§2) Viable cell count using Cell Counting Kit-F was carried out by the following method according to the attached instruction. The supernatant was removed from the 96-well plate after five days of culture. Cell Counting Kit-F diluted 1000-fold with an RPMI medium (phenol red-free, serum-free) was added for 100 µL/well at a time. After 30 minutes of reaction at room temperature, fluorescence (excitation wavelength; 480 nm, fluorescent wavelength; 530 nm) was determined with a fluorescent plate reader.
(§3) From the determination results, percentage of the fluorescence level in the wells added with the compound was determined assuming that the fluorescence level in the wells without the addition of the compound (control) is 100%, and the remaining cellular quantity was determined in % with respect to that of the control.

A498 kidney cancer cell = assay: Viable cell count using Cell Counting Kit-F; format: cell-based; details: A498; HER2-nonexpressing cancer; five days of culture
Experimental: as §1, §2, §3
(§4) BT-474 breast cancer cell, MDA-MB-453 breast cancer cell and LNCaP prostate cancer cell were used as human HER2-expressing cells while MDA-MB-231 breast cancer cell and A498 kidney cancer cell (all purchased from ATCC) were used as HER2-nonexpressing cells. Each of the cells used had been seeded into a 96-well plate at 500 cells/150 µL/well and cultured overnight. Troglitazone (final concentrations: 25, 6.25 and 1.56 µmol/L) was diluted with a medium, and added for 50 µL/well at a time to the final concentrations mentioned above. Following five days of culture at 37°C in 5% CO2, the cells were counted using Cell Counting Kit-F (Dojindo Laboratories).
as §3, with “troglitazone” for “the compound”

[3] = tested on: MDA-MB-231 breast cancer cell; assay: Viable cell count using Cell Counting Kit-F; format: cell-based; details: MB231; HER2-nonexpressing cancer; five days of culture
Experimental: as §1, §2, §3, §4
as §3, with “troglitazone” for “the compound”

Row | Compound | phosphorylation of S6K [1] | minimum concentrations for inhibiting cell proliferation for 50% or more [2] | minimum concentrations for inhibiting cell proliferation for 50% or more (A498 kidney cancer cell) | minimum concentrations for inhibiting cell proliferation for 50% or more [3]
1 | antimycin | suppressed | 10 nmol/L | >100 nmol/L | 10 nmol/L
2 | O=[N+]([O-])c1ccc(O)c([N+](=O)[O-])c1 [2,4-dinitrophenol] | suppressed | <20000 nmol/L | 200000 nmol/L | 200000 nmol/L

From patent publication EP1902732A1, “PROPHYLACTIC/THERAPEUTIC AGENT FOR HER2-EXPRESSING CANCER” (Takeda Pharmaceutical Company Limited, priority 2005, dated 2006)
